We go through three compounds from patent US20200316083A1, “ANTIBACTERIAL COMPOSITIONS” (WOCKHARDT LIMITED, priority 2016, published 2020).

Molecules are shown by their SMILES.

Holding throughout (type): cell-based
In test [1] the test system is K. pneumoniae B-88 producing metallo beta-lactamase enzymes. Description: Time kill study against K. pneumoniae B-88. Conditions: for Bacterial count (Log10 CFU/ml) 0 hours / Change in Log10 CFU/ml over 0 hour count after 24 hours / Bacterial count (Log10 CFU/ml) 2 hours / Bacterial count (Log10 CFU/ml) 4 hours / Bacterial count (Log10 CFU/ml) 6 hours / Bacterial count (Log10 CFU/ml) 24 hours: 2 mcg/ml alone; for Effect on bacterial count (in words): summary of Table 1, alone or in combination. The procedure: (§1) In general, the antibacterial activity of compositions according to invention was studied by performing time kill studies. In a typical time kill study, the freshly grown cultures were diluted to the required cell density (initial starting inoculum) in cation adjusted Muller Hinton broth medium (BD, USA). The antibacterial agents (either alone or in combination) at the required concentrations were added into the culture-containing medium. The samples were incubated under shaking condition (120 rpm) at 37° C. Enumeration of viable bacterial count was done every 2 hour by diluting in normal saline and plating on to the Tryptic Soya Agar plates (BD, USA). The plates were incubated for 24 hours to arrive at a viable bacterial count. The results are expressed in terms of log10 CFU/ml. In general, the decrease of 1 log10 CFU/ml corresponds to 90% killing of bacteria. Similarly, 2 log10 CFU/ml reductions indicates to 99% killing of bacteria and 3 log10 CFU/ml reductions is equal to 99.9% killing of bacteria.

For test [2], the system named is E. coli 7MP producing Class A and Class C beta-lactamase enzymes. Description: Time kill study against E. coli 7MP. Conditions: for Change in Log10 CFU/ml over 0 hour count after 24 hours / Bacterial count (Log10 CFU/ml) 2 hours / Bacterial count (Log10 CFU/ml) 4 hours / Bacterial count (Log10 CFU/ml) 6 hours / Bacterial count (Log10 CFU/ml) 24 hours: Table 2; for Effect on bacterial count (in words): summary of Table 2, alone or in combination. The procedure:
as §1

Test [3] concerns A. baumanni 13301 producing Carbapenem hydrolysing beta-lactamase enzymes. Description: Time kill study against A. baumanni 13301. Conditions: for Bacterial count (Log10 CFU/ml) 0 hours / Change in Log10 CFU/ml over 0 hour count after 24 hours / Bacterial count (Log10 CFU/ml) 2 hours / Bacterial count (Log10 CFU/ml) 4 hours / Bacterial count (Log10 CFU/ml) 6 hours / Bacterial count (Log10 CFU/ml) 8 hours / Bacterial count (Log10 CFU/ml) 24 hours: 4 mcg/ml alone; for Effect on bacterial count (in words): summary of Table 3, alone or in combination. Here is the method:
as §1

As for `N#C[C@@H]1CC[C@@H]2CN1C(=O)N2OS(=O)(=O)O` [Compound (B)], in test [1], the “Bacterial count (Log10 CFU/ml) 0 hours” value is listed as 7.28 Log10 CFU/ml, the “Change in Log10 CFU/ml over 0 hour count after 24 hours” value (“Change in Log10 CFU/ml” below) worked out at 2.12 Log10 CFU/ml, the “Bacterial count (Log10 CFU/ml) 2 hours” value is on record as 8.27 Log10 CFU/ml and the “Bacterial count (Log10 CFU/ml) 4 hours” value was 9.04 Log10 CFU/ml. Moreover, in test [1], the “Bacterial count (Log10 CFU/ml) 6 hours” value is listed as 9.18 Log10 CFU/ml, the “Bacterial count (Log10 CFU/ml) 24 hours” value is 9.40 Log10 CFU/ml and the “Effect on bacterial count (in words)” value is given as “could not reduce the bacterial count”. Moreover, in test [2] (4 mcg/ml alone), the “Change in Log10 CFU/ml” value worked out at 2.28 Log10 CFU/ml, the “Bacterial count (Log10 CFU/ml) 2 hours” value was found to be 7.90 Log10 CFU/ml, the “Bacterial count (Log10 CFU/ml) 4 hours” value came out at 9.23 Log10 CFU/ml and the “Bacterial count (Log10 CFU/ml) 6 hours” value came to 9.30 Log10 CFU/ml. Besides, in test [2] (4 mcg/ml alone), the “Bacterial count (Log10 CFU/ml) 24 hours” value is reported as 9.36 Log10 CFU/ml. The “Effect on bacterial count (in words)” value in test [2] is given as “could not reduce the bacterial count”. In addition, in test [3], the “Bacterial count (Log10 CFU/ml) 0 hours” value is 6.88 Log10 CFU/ml, the “Change in Log10 CFU/ml” value was determined as 2.16 Log10 CFU/ml, the “Bacterial count (Log10 CFU/ml) 2 hours” value is reported as 8.04 Log10 CFU/ml and the “Bacterial count (Log10 CFU/ml) 4 hours” value worked out at 8.74 Log10 CFU/ml. Besides, in test [3], the “Bacterial count (Log10 CFU/ml) 6 hours” value is listed as 8.90 Log10 CFU/ml, the “Bacterial count (Log10 CFU/ml) 8 hours” value was determined as 9.20 Log10 CFU/ml, the “Bacterial count (Log10 CFU/ml) 24 hours” value was 9.04 Log10 CFU/ml and the “Effect on bacterial count (in words)” value was “could not reduce the bacterial count”.
Turning to `O=C(NNC(=O)[C@@H]1CC[C@@H]2CN1C(=O)N2OS(=O)(=O)O)[C@@H]1CCCNC1` [Compound (C)], in test [1], the “Bacterial count (Log10 CFU/ml) 0 hours” value came out at 7.28 Log10 CFU/ml, the “Change in Log10 CFU/ml” value was 1.26 Log10 CFU/ml, the “Bacterial count (Log10 CFU/ml) 2 hours” value is listed as 7.60 Log10 CFU/ml and the “Bacterial count (Log10 CFU/ml) 4 hours” value came to 8.26 Log10 CFU/ml. In addition, in test [1], the “Bacterial count (Log10 CFU/ml) 6 hours” value amounted to 8.18 Log10 CFU/ml, the “Bacterial count (Log10 CFU/ml) 24 hours” value is 8.54 Log10 CFU/ml and the “Effect on bacterial count (in words)” value is recorded as “could not reduce the bacterial count”. Besides, in test [2] (2 mcg/ml alone), the “Change in Log10 CFU/ml” value was −3.54 Log10 CFU/ml, the “Bacterial count (Log10 CFU/ml) 2 hours” value is 6.30 Log10 CFU/ml, the “Bacterial count (Log10 CFU/ml) 4 hours” value was found to be 4.93 Log10 CFU/ml and the “Bacterial count (Log10 CFU/ml) 6 hours” value is on record as 4.23 Log10 CFU/ml. Further, the “Bacterial count (Log10 CFU/ml) 24 hours” value in test [2] (2 mcg/ml alone) came to 3.54 Log10 CFU/ml. Moreover, the “Effect on bacterial count (in words)” value in test [2] is “could not reduce the bacterial count”. For the same compound, in test [3], the “Bacterial count (Log10 CFU/ml) 0 hours” value was 6.88 Log10 CFU/ml, the “Change in Log10 CFU/ml” value stood at 2.35 Log10 CFU/ml, the “Bacterial count (Log10 CFU/ml) 2 hours” value turned out to be 8.13 Log10 CFU/ml and the “Bacterial count (Log10 CFU/ml) 4 hours” value is 8.85 Log10 CFU/ml. For the same compound, in test [3], the “Bacterial count (Log10 CFU/ml) 6 hours” value came to 9.19 Log10 CFU/ml, the “Bacterial count (Log10 CFU/ml) 8 hours” value is recorded as 9.02 Log10 CFU/ml, the “Bacterial count (Log10 CFU/ml) 24 hours” value is 9.23 Log10 CFU/ml and the “Effect on bacterial count (in words)” value was “could not reduce the bacterial count”.
Take `O=C(NOC[C@@H]1CCCN1)[C@@H]1CC[C@@H]2CN1C(=O)N2OS(=O)(=O)O` [Compound (D)]: in test [1], the “Bacterial count (Log10 CFU/ml) 0 hours” value was 7.28 Log10 CFU/ml, the “Change in Log10 CFU/ml” value is reported as 1.26 Log10 CFU/ml, the “Bacterial count (Log10 CFU/ml) 2 hours” value is on record as 7.60 Log10 CFU/ml and the “Bacterial count (Log10 CFU/ml) 4 hours” value amounted to 8.26 Log10 CFU/ml. For the same compound, in test [1], the “Bacterial count (Log10 CFU/ml) 6 hours” value is listed as 8.18 Log10 CFU/ml, the “Bacterial count (Log10 CFU/ml) 24 hours” value was found to be 8.54 Log10 CFU/ml and the “Effect on bacterial count (in words)” value was “could not reduce the bacterial count”. Moreover, in test [2] (2 mcg/ml alone), the “Change in Log10 CFU/ml” value came out at 0.22 Log10 CFU/ml, the “Bacterial count (Log10 CFU/ml) 2 hours” value was determined as 7.65 Log10 CFU/ml, the “Bacterial count (Log10 CFU/ml) 4 hours” value is 7.30 Log10 CFU/ml and the “Bacterial count (Log10 CFU/ml) 6 hours” value is 7.78 Log10 CFU/ml. Besides, the “Bacterial count (Log10 CFU/ml) 24 hours” value in test [2] (2 mcg/ml alone) turned out to be 7.30 Log10 CFU/ml. Also, the “Effect on bacterial count (in words)” value in test [2] is on record as “could not reduce the bacterial count”. Further, in test [3], the “Bacterial count (Log10 CFU/ml) 0 hours” value is 6.88 Log10 CFU/ml, the “Change in Log10 CFU/ml” value was 2.07 Log10 CFU/ml, the “Bacterial count (Log10 CFU/ml) 2 hours” value came to 7.98 Log10 CFU/ml and the “Bacterial count (Log10 CFU/ml) 4 hours” value is reported as 8.60 Log10 CFU/ml. Also, in test [3], the “Bacterial count (Log10 CFU/ml) 6 hours” value was found to be 9.00 Log10 CFU/ml, the “Bacterial count (Log10 CFU/ml) 8 hours” value is 9.04 Log10 CFU/ml, the “Bacterial count (Log10 CFU/ml) 24 hours” value is reported as 8.95 Log10 CFU/ml and the “Effect on bacterial count (in words)” value is “could not reduce the bacterial count”.
